According to publication PMC4508201 (Organic & biomolecular chemistry, 2015):
Read-outs that look alike come from different tables or passages of the source.

Tests used:
recombinant human S1PR2 = recombinant human S1PR2 (Homo sapiens, UniProt O95136); test: [32P]S1P competitive cell membrane binding assay, S1PR2
S1PR1 = S1PR1 (Homo sapiens, UniProt P21453); test: [32P]S1P competitive cell membrane binding assay, S1PR1
S1PR3 = S1PR3 (Homo sapiens, UniProt Q99500); test: [32P]S1P competitive cell membrane binding assay, S1PR3
[1] = IC50 S1PR2, competition against [32P]S1P, CHO cell membrane

Chain of recombinant human S1PR2 (O95136 whole entry): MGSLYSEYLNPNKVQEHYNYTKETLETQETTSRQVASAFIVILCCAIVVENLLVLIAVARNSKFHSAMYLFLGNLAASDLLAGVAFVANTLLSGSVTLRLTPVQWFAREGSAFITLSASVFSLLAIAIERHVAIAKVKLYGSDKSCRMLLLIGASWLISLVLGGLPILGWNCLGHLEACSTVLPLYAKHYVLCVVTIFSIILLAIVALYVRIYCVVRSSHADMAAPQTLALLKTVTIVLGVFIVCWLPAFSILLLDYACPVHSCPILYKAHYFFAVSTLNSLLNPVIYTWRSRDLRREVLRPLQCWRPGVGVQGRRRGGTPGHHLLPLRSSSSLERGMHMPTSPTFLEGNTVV
Chain of S1PR3 (Q99500 whole entry, species assumed): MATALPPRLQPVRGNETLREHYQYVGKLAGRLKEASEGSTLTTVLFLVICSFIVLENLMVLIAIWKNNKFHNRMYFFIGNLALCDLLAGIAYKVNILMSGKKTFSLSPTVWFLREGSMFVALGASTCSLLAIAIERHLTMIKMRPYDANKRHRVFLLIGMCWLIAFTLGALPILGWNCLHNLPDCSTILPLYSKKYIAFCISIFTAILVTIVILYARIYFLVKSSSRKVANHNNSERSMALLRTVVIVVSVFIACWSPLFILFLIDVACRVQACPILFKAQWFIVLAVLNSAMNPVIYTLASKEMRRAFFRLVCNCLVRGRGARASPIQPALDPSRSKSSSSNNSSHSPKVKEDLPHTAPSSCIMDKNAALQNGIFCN
Chain of S1PR1 (P21453 whole entry, species assumed): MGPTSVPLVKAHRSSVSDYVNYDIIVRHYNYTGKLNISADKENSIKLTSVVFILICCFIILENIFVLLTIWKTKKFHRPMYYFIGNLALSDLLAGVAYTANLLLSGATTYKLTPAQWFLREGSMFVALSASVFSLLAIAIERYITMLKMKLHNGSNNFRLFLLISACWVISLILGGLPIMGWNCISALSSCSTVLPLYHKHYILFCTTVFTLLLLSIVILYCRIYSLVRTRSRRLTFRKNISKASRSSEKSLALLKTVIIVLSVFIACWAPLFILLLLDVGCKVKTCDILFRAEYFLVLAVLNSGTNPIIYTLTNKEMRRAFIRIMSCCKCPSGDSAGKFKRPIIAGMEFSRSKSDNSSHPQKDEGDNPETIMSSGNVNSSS

SMILES | IC50 (recombinant human S1PR2; [1]) [nM] | IC50 (S1PR1) [nM] | IC50 (S1PR3) [nM] | IC50 S1PR2 (recombinant human S1PR2; competition against [32P]S1P, CHO cell membrane) | IC50 (recombinant human S1PR2; read-out: IC50 S1PR2, competition against [32P]S1P, CHO cell membrane) [nM] | IC50 (S1PR1; read-out: IC50 S1PR1, competition against [32P]S1P) [nM] | IC50 (S1PR3; read-out: IC50 S1PR3, competition against [32P]S1P) [nM] | Binding potency for S1PR2 relative to JTE-013 (recombinant human S1PR2; ratio of IC50 values)
COCCOc1cc(NC(=O)NNc2cc(C(C)C)c3c(C)nn(C)c3n2)cc(Cl)n1 [Compound 5c, N-(2-Chloro-6-(2-methoxyethoxy)pyridin-4-yl)-2-(4-isopropyl-1,3-dimethyl-1H-pyrazolo[3,4-b]pyridin-6-yl)hydrazine-1-carboxamide] | 234 | > 1000 | > 1000 | – | – | – | – | –
COCn1c(Cl)cc(NC(=O)NNc2cc(C(C)C)c3c(C)nn(C)c3n2)cc1=O [Compound 5d, N-(6-Chloro-1-(methoxymethyl)-2-oxo-1,2-dihydropyridin-4-yl)-2-(4-isopropyl-1,3-dimethyl-1H-pyrazolo[3,4-b]pyridin-6-yl)hydrazine-1-carboxamide] | > 1000 | > 1000 | > 1000 | No binding potency | – | – | – | –
Cc1nn(C)c2nc(NNC(=O)Nc3cc(Cl)nc(Cl)c3)cc(C(C)C)c12 [JTE-013, reference compound] | – | – | – | – | 68.5 ± 7.45 | > 1000 | > 1000 | –
Cc1nn(C)c2nc(NNC(=O)Nc3cc(F)nc(Cl)c3)cc(C(C)C)c12 [Compound 5b, N-(2-Chloro-6-fluoropyridin-4-yl)-2-(4-isopropyl-1,3-dimethyl-1H-pyrazolo[3,4-b]pyridin-6-yl)hydrazine-1-carboxamide] | 135 | > 1000 | > 1000 | – | – | – | – | –
COc1cc(NC(=O)NNc2cc(C(C)C)c3c(C)nn(C)c3n2)cc(Cl)n1 [Compound 5a, N-(2-Chloro-6-methoxypyridin-4-yl)-2-(4-isopropyl-1,3-dimethyl-1H-pyrazolo[3,4-b]pyridin-6-yl)hydrazine-1-carboxamide] | 9.52 ± 0.7 | > 1000 | > 1000 | – | – | – | – | seven-fold more potent

Continued, in another order:

IC50 (recombinant human S1PR2; [1]) [nM] | IC50 (S1PR1) [nM] | IC50 (S1PR3) [nM] | IC50 S1PR2 (recombinant human S1PR2; competition against [32P]S1P, CHO cell membrane) | SMILES | IC50 (recombinant human S1PR2; read-out: IC50 S1PR2, competition against [32P]S1P, CHO cell membrane) [nM] | IC50 (S1PR1; read-out: IC50 S1PR1, competition against [32P]S1P) [nM] | IC50 (S1PR3; read-out: IC50 S1PR3, competition against [32P]S1P) [nM] | Binding potency for S1PR2 relative to JTE-013 (recombinant human S1PR2; ratio of IC50 values)
8.12 ± 0.62 | > 1000 | > 1000 | – | Cc1nn(C)c2nc(NNC(=O)Nc3cc(Cl)nc(OCCF)c3)cc(C(C)C)c12 [Compound 5f, N-(2-Chloro-6-(2-fluoroethoxy)pyridin-4-yl)-2-(4-isopropyl-1,3-dimethyl-1H-pyrazolo[3,4-b]pyridin-6-yl)hydrazine-1-carboxamide] | – | – | – | –
8.09 ± 0.91 | > 1000 | > 1000 | – | COCOc1cc(NC(=O)NNc2cc(C(C)C)c3c(C)nn(C)c3n2)cc(Cl)n1 [Compound 5e, N-(2-Chloro-6-(methoxymethoxy)pyridin-4-yl)-2-(4-isopropyl-1,3-dimethyl-1H-pyrazolo[3,4-b]pyridin-6-yl)hydrazine-1-carboxamide] | – | – | – | –
